A short description of data set [1]: Determination of terminal half times after intravenous injection in rats (plasma, LC/MS-MS). Also on record: species or system Male Wistar rats. To be noted: in vivo, rat, read-out: terminal half time (t½). The method, then: Male Wistar rats (Crl:WI(Han), Charles River, Germany, weight 300 g±20 g were kept in transparent polycarbonate cages (floor area: 1500 cm^2—height: at least 21 cm) with two in each cage, males and females separated at a temperature of 21° C.±3° C. and relative humidity of 55%±15% with a 12 hours light and 12 hours darkness (Light on from 06:00 to 18:00 h). Following a minimum of five days acclimatization the animals received an intravenous injection of test item through the tail vein given over 60 seconds using a butterfly syringe with volume adjusted according to the most recent body weight data. The butterfly was flushed with 0.4 mL 0.9% NaCl immediately after injection. […]. The dose volume was 5 mL/kg body weight.
The following doses of test item was given: 0.1, 1 and 10 mg/kg in 5% glucose; 1.0 mM acetic acid. Six animals were treated on each dose level.
(§1) On the day of dosing blood samples of approximately 0.4 mL was drawn using the sublingual method. The blood was sampled into a collecting tube containing K2EDTA as anticoagulant. After collection, the collecting tube was immediately labelled and placed in ice water (sufficient to cover the blood entirely) until centrifugation. Within 20 minutes after blood sampling, blood was centrifuged for 8 minutes at 2150 G, at +4° C.). The entire plasma sample was transferred to Eppendorf microcentrifuge tubes (Polypropylene tubes with Eppendorf Safe-Lock lid, Sigma, Denmark). Within 30 minutes after centrifugation, plasma was snap frozen on dry ice and stored at −70° C. or below.
Time point for blood sampling: 2, 5, 10 and 20 min from completion of dosing.
Plasma concentration of the test item was measured by use of LC/MS-MS.

Data set [2] is described as follows: Determination of terminal half times after intravenous injection in beagle dogs (plasma, LC/MS-MS). The data set is classed as in vivo. To be noted: dog; for half-life: in vivo, intravenous, read-out: terminal half time (t½). The method, then: 6 beagle dogs, 3 males and 3 females, HsdRcc:DOBE from Marshall BioResources, F-03800 Gannat, France. Age 5-6 months, weight 6-8 kg were kept 21° C.±3° C. with relative humidity of 55%±15% with 12 hours light and 12 hours darkness (Light on from 06:00 to 18:00 h). Male and females kept separate.
Following a pre-treatment period of a minimum of two weeks the animals received an intravenous injection of test item through the cephalic vein given over 5 min using a butterfly syringe with volume adjusted according to the most recent body weight data. The butterfly was flushed with 5 ml 0.9% NaCl immediately after injection. The dose volume was 5 mL/kg body weight. One male and one female were treated at each dose level.
The following doses of test item was given: 2, 6 and 10 mg/kg in 5% glucose; 1.0 mM acetic acid. One male and one female were treated on each dose level. For the control peptide the doses given were: 1, 3 and 10 mg/kg.
as §1, with “Blood samples for determination” for “On the day”, “plasma levels of test item” for “dosing blood samples”, “mL per sample” for “mL”, “from” for “using”, “contralateral cephalic vein.” for “sublingual method.”
Plasma concentration of test item and control peptide was measured by use of LC/MS-MS.

A short description of data set [3]: Liver injury assessment: blood levels of alanine aminotransferase (ALT) in HFD NASH model. The format is in vivo, C57BL/6 mice. The settings on record: HFD mice, after 6 weeks treatment, i.p.; AnxA1 1 mg/kg/day, Test Item A 250 μg/kg/day. The method, then: (§2) Male C57BL/6 mice were housed (7-9/cage) in pathogen free conditions and maintained at constant room temperature (20-22° C.) with free access to water and food under a 12 h light/dark cycle (lights on at 07:00 h). […] This diet leads within 16 weeks to steatohepatitis associated with obesity and insulin resistance, which mimics what is seems in humans suffering from NASH. The control group received ad libitum normal chow for 16 weeks. The body weight for each mouse was recorded weekly by using a dedicated digital balance (each Friday afternoon—starting from 5 pm).
Liver injury was assessed before and after treatment with test compound, control compound or vehicle by evaluating blood levels of alanine aminotransferase (ALT) with a spectrophotometric kit. Blood sampling was carried out by retro-orbital bleeding.
Mice were divided in experimental groups as below: • A: Non HFD: Time control group: Had access to standard chow diet throughout the study period • B: Vehicle: Vehicle treatment group: Received HFD+Vehicle treatment (sterile saline injections) once daily • C: AnxA1: AnnexinA1 treatment group: Received HFD+Annexin A1 full-length protein at a dose of 1 mg/kg/day. • D: Test Item A: Test compound A group: Received HDF+250 μg/kg/day of Test compound A=[…] (SEQ ID NO:4); (AnxA1 (2-46 Val24Leu). […]

The subject of data set [4] is TNF-α. Nature of the data set: Low grade inflammation: liver expression level of TNF-α by real time PCR in HFD NASH model. The format is in vivo, C57BL/6 mice. The settings on record: HFD mice, AnxA1 1 mg/kg/day, Test Item A 250 μg/kg/day. The method, then:
as §2
Low inflammation in the livers was determined by the expression level of TNF-α measured by real time PCR using a commercial available tracer.
(§3) Mice were divided in experimental groups as below: • A: Non HFD: Time control group: Had access to standard chow diet throughout the study period • B: Vehicle: Vehicle treatment group: Received HFD+Vehicle treatment (sterile saline injections) once daily • C: AnxA1: AnnexinA1 treatment group: Received HFD+Annexin A1 full-length protein at a dose of 1 mg/kg/day. • D: Test Item A: Test compound A group: Received HDF+250 μg/kg/day of Test compound A=[…] (SEQ ID NO:4); (AnxA1 (2-46 Val24Leu).
Treatment was commended following 10 weeks HFD and was given as a once daily intraperitoneal given 5 days a week (Monday-Friday) for 6 weeks. […]
On the technique in general: Quantitative PCR measures a nucleic acid by following its amplification.

A short description of data set [5]: Body weight and liver weight in experimental model of Nonalcoholic Steatohepatitis (HFD mice). The format is in vivo, C57BL/6 mice. The settings on record: end of 6 weeks treatment, i.p. once daily 5 days a week, AnxA1 1 mg/kg/day, Test Item A 250 μg/kg/day. On the procedure: as §2, §3
Treatment was commended following 10 weeks HFD and was given as a once daily intraperitoneal given 5 days a week (Monday-Friday) for 6 weeks. The animals were kept on HFD during the 6 weeks treatment period. […]

Ends that are not written are not given here.

As to “AMVSEFLKQAWFIENEEQEYVQTLKSSKGGPGSAVSPYPTFNPSS [Test Item A]”, the half-life in data set [1] (0.1 mg/kg) was 3.18 min; in data set [1] (1 mg/kg) it was 2.87 min; in data set [1] (10 mg/kg) it was 5.85 min; in data set [2] (2 mg/kg), 9.16 min; in data set [2] (6 mg/kg), 19.8 min; in data set [2] (10 mg/kg) it was 28.3 min. In data set [2] (single intravenous dosing), the “terminal half time (t½) of test item, times longer than the control peptide” value is listed as “up to 4.8 times”.

Regarding “AMVSEFLKQAWFIENEEQEYVQTLKSSKGGPGSAVSPYPTFNPSSDV [control peptide, reference compound]”, the half-life in data set [2] (1 mg/kg) was 5.57 min; in data set [2] (3 mg/kg), 5.69 min; in data set [2] (10 mg/kg), 5.86 min.

B1: AnxA1: full length Annexin A1 protein (Homo sapiens, SEQ ID NO:1) (protein, listed as Homo Sapiens)
chain: MAMVSEFLKQAWFIENEEQEYVQTVKSSKGGPGSAVSPYPTFNPSSDVAALHKAIMVKGVDEATIIDILTKRNNAQRQQIKAAYLQETGKPLDETLKKALTGHLEEVVLALLKTPAQFDADELRAAMKGLGTDEDTLIEILASRTNKEIRDINRVYREELKRDLAKDITSDTSGDFRNALLSLAKGDRSEDFGVNEDLADSDARALYEAGERRKGTDVNVFNTILTTRSYPQLRRVFQKYTKYSKHDMNKVLDLELKGDIEKCLTAIVKCATSKPAFFAEKLHQAMKGVGTRHKALIRIMVSRSEIDMNDIKAFYQKMYGISLCQAILDETKGDYEKILVALCGGN
As for B1, in data set [3], the “ALT (blood alanine aminotransferase)” value was determined as 100 u/L. Besides, in data set [4], the “Relative expression levels of TNF-α with the mean expression in group B (vehicle) set to 1” value was 1.17±023. For the same molecule, in data set [5], the “Bodyweight, mean value per group” value turned out to be 32.5 g and the “Liver Weight, mean value per group” value was 2.0 g.

The values are drawn from US20230295255A1, “ANNEXIN A1-DERIVED POLYPEPTIDE ANALOGUES” (Reso Ther Pharma A/S, priority 2020, published 2023).
